The results in this text go back to patent US20210052600A1, “THERAPEUTIC AGENTS FOR STRESS URINARY INCONTINENCE AND INCOTINENCE OF FECES” (Takeda Pharmaceutical Company Limited, priority 2017, published 2021).

pEC50: −log10 of the molar value.

Assay [1] has as its system anus-closing function increasing effect of Compound A′. Description: Influence of SB 242084 on Compound A′-induced rat anus-closing function increasing effect (Anal LPP). The assay is classed as in vivo. The following applies: vehicle i.v. then Compound A′ 1 mg/kg i.v.; 5 minutes after Compound A′; n=9. As for the experimental part:
Eighteen female SD rats were used. After overnight fasting, rats were intraperitoneally administered with urethane for anesthesia, and isoflurane inhalation was added during surgery. The abdomen was incised to expose the rectum, and a small incision of the rectum was made. A polyethylene catheter (SP61, Natsume) was inserted into the rectum through the rectum incision, and the tip of the catheter was positioned around 5 mm from the anal orifice. The other end of the catheter was connected with a pressure transducer and an infusion pump via three-way stopcocks, and the change in pressure in the rectum was measured using the pressure transducer, an electric signal amplifier, and an analog-to-digital converter. For administrating drugs, a polyethylene catheter (SP45, Natsume) was inserted into the femoral vein after exposing the vein by small incision.
After recovery period from surgery, while saline was infused at a speed of 0.1 mL/sec into the rectum using an infusion pump, change in the measured pressure—was observed. […] The peak value of the pressure recorded in the rectum during the course of the procedures was defined as “an Anal LPP” in this Example. […] The Anal LPP was again measured in the same way 5 minutes after the administration with Compound A′. The difference in Anal LPP from the Pre value (increased amount of Anal LPP) was calculated. […]

For assay [2], the target named is T1, human 5-HT2C receptors (Homo sapiens, UniProt P28335).
T1 construct: expressed in transfected cells; host or cells: CHO-K1 cells
T1 sequence (P28335 33-458): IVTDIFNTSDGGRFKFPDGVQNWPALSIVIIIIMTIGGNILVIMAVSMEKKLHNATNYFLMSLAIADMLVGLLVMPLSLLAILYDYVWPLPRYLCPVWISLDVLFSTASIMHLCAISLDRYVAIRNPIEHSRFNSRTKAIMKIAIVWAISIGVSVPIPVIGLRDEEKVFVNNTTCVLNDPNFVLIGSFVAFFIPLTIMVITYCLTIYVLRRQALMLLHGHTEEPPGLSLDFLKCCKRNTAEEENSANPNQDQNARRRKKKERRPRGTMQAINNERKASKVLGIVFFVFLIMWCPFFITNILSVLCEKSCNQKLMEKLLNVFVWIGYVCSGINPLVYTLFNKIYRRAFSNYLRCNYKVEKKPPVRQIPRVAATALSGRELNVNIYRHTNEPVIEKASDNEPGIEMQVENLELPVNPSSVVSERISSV
Description: In vitro test of agonistic potency on human 5-HT2C receptor (change in intracellular Ca2+). The assay is classed as cell-based. The following applies: CHO-K1 cells expressing recombinant human 5-HT2C receptors; intracellular Ca2+ (Fluo-4).

In assay [3] the test system is urethra-closing reflex response. Description: Urethra-closing reflex response induced by intravesical pressure rise in rats. The assay is classed as in vivo, rat. The following applies: 3 mg/kg i.d., mean ± SEM.
Description: Thirty-two female rats of SD strain were used. The rats were anesthetized with urethane. Isoflurane inhalation was added during the surgery, if necessary. Their spinal cord was transected at the T8-T9 (the eighth thoracic cord—the ninth thoracic cord) level to eliminate the reflex voiding and to inhibit the transition from the urine storage phase to the voiding phase in the voiding cycle. After opening of the abdomen, the bladder neck was ligated with suture, and a catheter (PE-100) was inserted into the bladder. The bladder catheter was connected to a pressure transducer and a saline-containing reservoir via three-way stopcocks. A microtip transducer catheter was inserted from the urethral orifice toward the bladder so that its transducer was inserted into the urethra. Local change in pressure within the urethra (intraurethral pressure) was recorded via an electric signal amplifier and an analog-to-digital converter. […] Then, the reservoir was brought back to the original position to adjust the intravesical pressure to its baseline. Such change in intraurethral pressure induced by intravesical pressure rise was repeatedly measured, and the mean value from the last 2 trials was used as a Pre value. The vehicle used was 0.5% MC. […] Thirty minutes after administration, the change in intraurethral pressure induced by intravesical pressure rise was measured again and used as a Post value. The average value before intravesical pressure rise was subtracted from the average value during intravesical pressure rise, and the subtracted value was used as urethra-closing reflex response. The ratio of the Post value to the Pre value was calculated.
Assay [4] concerns urethral resistance increasing effect of Compound A′. The assay is described as follows: Influence of antagonists (SB 242084, methiothepin) on urethral resistance increasing effect of Compound A′ in rats. The assay is classed as in vivo, rat. The following applies: mean ± SEM; for LPP Post: 30 minutes after Compound A′; for LPP Increase: Post minus Pre; for LPP Pre: before administration. As for the experimental part:
Ninety female rats of SD strain were used. […] Isoflurane inhalation was added during the surgery, if necessary. In the experiment with intrathecal administration, the dura mater was exposed by laminectomy and then partially opened by incision, through which a catheter (PE-10) filled with saline was then implanted at the level of the L6-S1 site, followed by the closing of the incision. After opening of the abdomen, a catheter (PE-90) was inserted into the bladder. In order to secure reduced urethral resistance, unilateral nerve to iliococcygeus and pubococcygeus muscles was transected. For intraduodenal administration, another catheter (PE-50) was inserted into the duodenum in advance. The abdominal muscle and skin were each closed with sutures. Two (right and left) sites of abdominal skin near the diaphragm were cut to expose abdominal muscle. The bladder was emptied through the catheter, followed by the injection of 0.2 to 0.3 mL of Evans blue solution. Change in intravesical pressure was recorded using the bladder catheter via a pressure transducer, an electric signal amplifier, and an analog-to-digital converter. While change in intravesical pressure was recorded, the presence or absence of fluid leakage from the urethral orifice was observed under the electrical stimulation of the exposed abdominal muscle using an electrical stimulator and an isolator. […] The peak of the intravesical pressure during the stimulation of the abdominal muscle was measured, and the lowest pressure at which the fluid leakage was observed among the trials was defined as LPP for the electrical abdominal muscle stimulation method. In order to examine whether the urethral resistance increasing effect of Compound A′ is based on its agonistic potency on 5-HT2C receptors, SB 242084, methiothepin, or a vehicle was intravenously administered, and Compound A′ or a vehicle was intraduodenally administered 5 minutes later. SB 242084 was dissolved in a mixed solution of N,N-dimethylacetamide and polyethylene glycol 400 (1:1) and administered at 0.03 mg/0.5 mL/kg, 0.1 mg/0.5 mL/kg and 0.3 mg/0.5 mL/kg. Methiothepin was dissolved in saline and administered at 0.03 mg/0.5 mL/kg. 0.1 mg/0.5 mL/kg and 0.3 mg/0.5 mL/kg. Compound A′ was suspended in 0.5% MC and administered at 3 mg/mL/kg. LPP was measured again 30 minutes after Compound A′ administration. In order to examine where Compound A′ works in the body to increase urethral resistance, the blocking of the effect of Compound A′ was confirmed by blocking the functions of Compound A′ by giving methiothepin at a particular site in the body. Particularly, in the experiment with intrathecal administration, methiothepin or a vehicle was intrathecally administered, and Compound A′ or a vehicle was intraduodenally administered 5 minutes later. Methiothepin was dissolved in saline and 20 μL of the obtained solution was administered. Compound A′ was suspended in 0.5% MC and administered at 3 mg/mL/kg. LPP was measured again 30 minutes after Compound A′ administration.
Regarding change in LPP before and after drug administration, the differences between the mean values of the Compound A′-treated and vehicle-treated groups were analyzed by the Student's t test or the Welch's test. In order to analyze the influence of the antagonists on the effect of Compound A′, the differences between the mean values of the SB 242084- or methiothepin- and Compound A′-administered group and the vehicle- and Compound A′-administered group were analyzed by the one-tailed Williams' test.

The mark [5] stands for this setting: SB 242084 0 mg/kg i.v. (vehicle) + Compound A′ 3 mg/kg i.d.
[6] abbreviates: methiothepin 0 μg intrathecal (vehicle) + Compound A′ 3 mg/kg i.d.
The mark [7] stands for this setting: methiothepin 0 mg/kg i.v. (vehicle) + Compound A′ 3 mg/kg i.d.

Broadly, the pEC50 is the EC50 on a negative log10 scale, so that one unit is a factor of ten. With `CC(C)N(C)c1cnc2c(n1)OCCNC2.Cl` [Compound A′, N-methyl-N-(1-methylethyl)-6,7,8,9-tetrahydropyrazino[2,3-f][1,4]oxazeine-3-amine], the “Anal LPP Increase” value in assay [1] came out at 9.2±3.0 cmH2O. The pEC50 in assay [2] is 8.59. Also, the “Urethra-closing reflex response Post” value in assay [3] (30 minutes after administration, intravesical pressure rise by 50 cm H2O) is listed as 10.40 ± 1.78 cmH2O. For the same molecule, the “Urethra-closing reflex response Pre” value in assay [3] (before administration, intravesical pressure rise by 50 cm H2O) was determined as 3.58 ± 0.42 cmH2O. In addition, in assay [3] (ratio of Post value to Pre value), the “Urethra-closing reflex response Ratio (Post/Pr)” value was determined as 2.82 ± 0.29. In assay [4] (setting [5]), the “LPP Post” value is 72.4 ± 9.5 cmH2O, the “LPP Increase” value is recorded as 26.4 ± 5.9 cmH2O and the “LPP Pre” value amounted to 46.0 ± 5.1 cmH2O. In addition, in assay [4] (setting [6]), the “LPP Post” value came out at 72.1 ± 5.7 cmH2O, the “LPP Increase” value was 31.8 ± 6.2 cmH2O and the “LPP Pre” value is 40.3 ± 5.6 cmH2O. For the same molecule, in assay [4] (setting [7]), the “LPP Post” value is 61.0 ± 8.3 cmH2O, the “LPP Increase” value amounted to 15.1 ± 4.0 cmH2O and the “LPP Pre” value came out at 45.9 ± 4.4 cmH2O.
